Patent US9416141B2 (University of Washington through its Center for …, priority 2012, dated 2016)
pEC50: −log10 of the molar value. Where a name gives a salt, the structure may show the parent alone.

System: hair cells
Test: Hair cell toxicity assay in zebrafish (neomycin-induced hair cell death, DASPEI staining of neuromasts)
Type: in vivo
Settings: Danio rerio; for Emax at 25 µM: maximum observed @ 25 μM test compound; for pEC50: zebrafish larvae 5-7 dpf, 1 h pre-treatment, then 200 micromolar neomycin + test compound 30 min, read-out: HC50 (concentration that would produce 50% hair cell survival); for Emax at 2.8 µM: maximum observed @ 2.8 μM test compound; for Emax at 8.3 µM: maximum observed @ 8.3 μM test compound
Procedure, shortened: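 Zebrafish larvae 5-7 dpf pre-treated 1 h with compound (0.010-25 μM), then 30 min with 200 μM neomycin plus compound. DASPEI stained 10 neuromasts per fish, scored 0-2 (total 0-20), normalised to vehicle controls as % hair cell survival. HC50 linearly interpolated if survival reached ≥50%; HCmax is maximum survival.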

[1] = 200 micromolar neomycin, read-out: Max HC Protection (HCmax, % hair cell survival)

| SMILES | Emax at 25 µM [1] | pEC50 | Emax at 2.8 µM [1] | also measured |
| --- | --- | --- | --- | --- |
| CCN1CCc2c(sc(NC(=O)Nc3cccc(F)c3)c2C(N)=O)C1 [Example 71, 6-Ethyl-2-[3-(3-fluorophenyl)ureido]-4,5,6,7-tetrahydrothieno[2,3-c]pyridine-3-carboxamide hydrochloride] | 45% | – | – | – |
| CCN1CCc2c(sc(NC(=O)Nc3ccc4cc(F)ccc4c3)c2C(N)=O)C1 [Example 93, 6-ethyl-2-[3-(6-fluoronaphthalen-2-yl)ureido]-4,5,6,7-tetrahydrothieno[2,3-c]pyridine-3-carboxamide hydrochloride] | 97% | 5.00 to 6.00 | – | – |
| CN1CCN(CCN2CCc3c(sc(NC(=O)Nc4ccc(Cl)cc4)c3C(N)=O)C2)CC1 [Example 45, 2-[3-(4-Chlorophenyl)ureido]-6-[2-(4-methylpiperazin-1-yl)ethyl]-4,5,6,7-tetrahydrothieno[2,3-c]pyridine-3-carboxamide hydrochloride] | 78% | 5.00 to 6.00 | – | – |
| C[N+]1(C)CCCC12CCc1c(sc(NC(=O)Nc3ccc(Cl)cc3)c1C(N)=O)C2 (racemic) [Example 186, (+/−)-3-Carbamoyl-2-[3-(4-chlorophenyl)ureido]-1′,1′-dimethyl-5,7-dihydro-4H-spiro(benzo[b]thiophene-6,2′-pyrrolidin)-1′-ium trifluoroacetate] | – | > 6.00 | 65% | – |
| CN1C2CCC1c1sc(NC(=O)Nc3ccc(C(=O)c4ccccc4)cc3)c(C(N)=O)c1C2 (racemic) [Example 126, (+/−)-2-[3-(4-Benzoylphenyl)ureido]-9-methyl-5,6,7,8-tetrahydro-4H-5,8-epiminocyclohepta[b]thiophene-3-carboxamide hydrochloride] | – | – | 41% | – |
| NC(=O)c1c(NC(=O)Nc2ccc(Cl)cc2)sc2c1CC1CCCCN1C2 (racemic) [Example 117, (+/−)-2-[3-(4-chlorophenyl)ureido]-4a,5,6,7,8,10-hexahydro-4H-thieno[3,2-b]quinolizine-3-carboxamide hydrochloride] | 78% | 5.00 to 6.00 | – | – |
| CCN1CCc2c(sc(NC(=O)Nc3ccc4c(c3)CCCC4)c2C(N)=O)C1 [Example 227, 6-ethyl-2-{[(5,6,7,8-tetrahydronaphthalen-2-yl)carbamoyl]amino}-4H,5H,6H,7H-thieno[2,3-c]pyridine-3-carboxamide] | 80% | 5.00 to 6.00 | – | – |
| CC[N+]1(CC(C)C)CCc2c(sc(NC(=O)Nc3ccc(Cl)cc3)c2C(N)=O)C1 (stereo not drawn) [Example 200, 3-Carbamoyl-2-[3-(4-chlorophenyl)ureido]-6-ethyl-6-isobutyl-4,5,6,7-tetrahydrothieno[2,3-c]pyridin-6-ium chloride] | – | > 6.00 | 97% | – |
| CCOC(=O)CCN1CCc2c(sc(NC(=O)Nc3ccc(Cl)cc3)c2C(N)=O)C1 [Example 56, Ethyl 3-{3-carbamoyl-2-[3-(4-chlorophenyl)ureido]-4,5-dihydrothieno[2,3-c]pyridin-6(7H)-yl}propanoate hydrochloride] | – | – | 48% | – |
| NC(=O)c1c(NC(=O)Nc2ccc(Cl)cc2)sc2c1CC1CCC2N1 (racemic) [Example 122, (+/−)-2-[3-(4-chlorophenyl)ureido]-5,6,7,8-tetrahydro-4H-5,8-epiminocyclohepta[b]thiophene-3-carboxamide hydrochloride] | 91% | > 6.00 | – | – |
| NC(=O)c1c(NC(=O)Nc2ccc(Cl)cc2)sc2c1CCN(C1CCOCC1)C2 [Example 5, 2-[3-(4-Chlorophenyl)ureido]-6-(tetrahydro-2H-pyran-4-yl)-4,5,6,7-tetrahydrothieno[2,3-c]pyridine-3-carboxamide hydrochloride] | – | 5.00 to 6.00 | – | Emax at 8.3 µM [1]: 89% |
| CC(C)(C)OC(=O)CCCCC[N+]1(C)CCc2c(sc(NC(=O)Nc3ccc(Cl)cc3)c2C(N)=O)C1 (stereo not drawn) [Example 156, 6-(6-tert-Butoxy-6-oxohexyl)-3-carbamoyl-2-[3-(4-chlorophenyl)ureido]-6-methyl-4,5,6,7-tetrahydrothieno[2,3-c]pyridin-6-ium iodide] | – | > 6.00 | 96% | – |
| CCN1CCc2c(sc(NC(=O)C3(c4ccc(Cl)cc4)CC3)c2C(N)=O)C1 [Example 105, 2-[1-(4-chlorophenyl)cyclopropanecarboxamido]-6-ethyl-4,5,6,7-tetrahydrothieno[2,3-c]pyridine-3-carboxamide] | 7% | – | – | – |
| CC[N+]1(CC2CCC2)CCc2c(sc(NC(=O)Nc3ccc(Cl)cc3)c2C(N)=O)C1 (stereo not drawn) [Example 190, 3-carbamoyl-2-[3-(4-chlorophenyl)ureido]-6-(cyclobutylmethyl)-6-ethyl-4,5,6,7-tetrahydrothieno[2,3-c]pyridin-6-ium chloride] | – | > 6.00 | 100% | – |
| CN(C)C(=O)CCCN1CCc2c(sc(NC(=O)Nc3ccc(Cl)cc3)c2C(N)=O)C1 [Example 23, 2-[3-(4-Chlorophenyl)ureido]-6-[4-(dimethylamino)-4-oxobutyl]-4,5,6,7-tetrahydrothieno[2,3-c]pyridine-3-carboxamide hydrochloride] | – | – | 43% | – |
| CC(C)(C)OC(=O)CCC[N+]1(C)CCc2c(sc(NC(=O)Nc3ccc(Cl)cc3)c2C(N)=O)C1 (stereo not drawn) [Example 154, 6-(4-tert-Butoxy-4-oxobutyl)-3-carbamoyl-2-[3-(4-chlorophenyl)ureido]-6-methyl-4,5,6,7-tetrahydrothieno[2,3-c]pyridin-6-ium trifluoroacetate] | – | > 6.00 | 96% | – |
| CC(C)C(C)[N+]1(C)CCc2c(sc(NC(=O)Nc3ccc(Cl)cc3)c2C(N)=O)C1 (racemic) [Example 204, (+/−)-3-Carbamoyl-2-[3-(4-chlorophenyl)ureido]-6-methyl-6-(3-methylbutan-2-yl)-4,5,6,7-tetrahydrothieno[2,3-c]pyridin-6-ium chloride] | – | – | – | Emax at 8.3 µM [1]: 77% |
| C[N+]1(CC2CCCCC2)CCc2c(sc(NC(=O)Nc3ccc(Cl)cc3)c2C(N)=O)C1 (stereo not drawn) [Example 152, 3-Carbamoyl-2-[3-(4-chlorophenyl)ureido]-6-(cyclohexylmethyl)-6-methyl-4,5,6,7-tetrahydrothieno[2,3-c]pyridin-6-ium iodide] | – | > 6.00 | – | Emax at 0.9 µM (maximum observed @ 0.9 μM test compound, 200 micromolar neomycin, read-out: Max HC Protection (HCmax, % hair cell survival)): 78% |
| NC(=O)c1c(NC(=O)Nc2ccc(Cl)cc2)sc2c1CCN(CCCC(=O)O)C2 [Example 13, 4-{3-Carbamoyl-2-[3-(4-chlorophenyl)ureido]-4,5-dihydrothieno[2,3-c]pyridin-6(7H)-yl}butanoic acid hydrochloride] | – | – | – | Emax at 8.3 µM [1]: 17% |
| NC(=O)c1c(NC(=O)Nc2ccc(Cl)cc2)sc2c1CCN(CC(F)(F)F)C2 [Example 89, 2-[3-(4-Chlorophenyl)ureido]-6-(2,2,2-trifluoroethyl)-4,5,6,7-tetrahydrothieno[2,3-c]pyridine-3-carboxamide] | – | – | – | Emax at 8.3 µM [1]: 18% |
| CCN1CCc2c(sc(NC(=O)Nc3ccc4c(c3)OC(F)(F)O4)c2C(N)=O)C1 [Example 85, 2-[3-(2,2-Difluorobenzo[d][1,3]dioxol-5-yl)ureido]-6-ethyl-4,5,6,7-tetrahydrothieno[2,3-c]pyridine-3-carboxamide hydrochloride] | 63% | 5.00 to 6.00 | – | – |
| CCN1CCc2c(sc(NC(=O)Nc3ccc(F)cc3)c2C(N)=O)C1 [Example 66, 6-Ethyl-2-[3-(4-fluorophenyl)ureido]-4,5,6,7-tetrahydrothieno[2,3-c]pyridine-3-carboxamide hydrochloride] | 57% | < 5.00 | – | – |
| NC(=O)c1c(NC(=O)Nc2ccc(Cl)cc2)sc2c1CC[N+](CCCO)(CCCO)C2 [Example 201, 3-Carbamoyl-2-[3-(4-chlorophenyl)ureido]-6,6-bis(3-hydroxypropyl)-4,5,6,7-tetrahydrothieno[2,3-c]pyridin-6-ium chloride] | – | > 6.00 | – | Emax at 2.5 µM (maximum observed @ 2.5 μM test compound, 200 micromolar neomycin, read-out: Max HC Protection (HCmax, % hair cell survival)): 102% |
| CCN1CCc2c(sc(NC(=O)Nc3ccc(Cl)c4ccccc34)c2C(N)=O)C1 [Example 228, 2-{[(4-chloronaphthalen-1-yl)carbamoyl]amino}-6-ethyl-4H,5H,6H,7H-thieno[2,3-c]pyridine-3-carboxamide] | 93% | 5.00 to 6.00 | – | – |
| C[N+]1(C2CCOCC2)CCc2c(sc(NC(=O)Nc3ccc(Cl)cc3)c2C(N)=O)C1 (stereo not drawn) [Example 143, 3-Carbamoyl-2-[3-(4-chlorophenyl)ureido]-6-methyl-6-(tetrahydro-2H-pyran-4-yl)-4,5,6,7-tetrahydrothieno[2,3-c]pyridin-6-ium iodide] | 96% | 5.00 to 6.00 | – | – |
| C[N+](C)(C)C1CCc2c(sc(NC(=O)Nc3ccc(Cl)cc3)c2C(N)=O)C1 (stereo not drawn) [Example 169, 3-Carbamoyl-2-[3-(4-chlorophenyl)ureido]-N,N,N-trimethyl-4,5,6,7-tetrahydrobenzo[b]thiophen-6-aminium iodide] | 101% | 5.00 to 6.00 | – | – |
| CCOC(=O)CCC[N+]1(C)CCc2c(sc(NC(=O)Nc3ccc(Cl)cc3)c2C(N)=O)C1 (stereo not drawn) [Example 161, 3-Carbamoyl-2-[3-(4-chlorophenyl)ureido]-6-(4-ethoxy-4-oxobutyl)-6-methyl-4,5,6,7-tetrahydrothieno[2,3-c]pyridin-6-ium iodide] | – | > 6.00 | 87% | – |
| CC(C)NC(=O)CC[N+]1(C)CCc2c(sc(NC(=O)Nc3ccc(Cl)cc3)c2C(N)=O)C1 (stereo not drawn) [Example 164, 3-Carbamoyl-2-[3-(4-chlorophenyl)ureido]-6-[3-(isopropylamino)-3-oxopropyl]-6-methyl-4,5,6,7-tetrahydrothieno[2,3-c]pyridin-6-ium trifluoroacetate] | – | 5.00 to 6.00 | 60% | – |
